Data as given in patent US9474749B2 (priority 2004, dated 2016).

What was measured:
[1] = test system: BACE-2; test: BACE-2 mRNA expression in HTB-11 cells (RT-PCR)
Procedure: (§1) SH-SY5Y human neuroblastoma cells (ATCC, USA) were cultured in Dulbecco's modified Eagle's medium/Ham's nutrient mixture (DMEM-F12) (Invitrogen, USA), and HTB-11 human neuroblastoma cells (ATCC, USA) were cultured in Minimum Essential Medium Alpha Medium (MEM-α) (Invitrogen, USA). […] All treatments were performed under a sterile hood.
(§2) After the treatment time-period, cells were harvested, and total RNA was extracted using RNeasy RNA Isolation kit (Qiagen) following the manufacturer's procedures. Total RNA yield was determined using a Spectrophotometer RNA/DNA calculator (Pharmacia Biotech). Total RNA concentration was then standardized for semi-quantitative RT-PCR, which was carried out in a Geneamp Thermocycler PCR System 9700 (P.E. Applied Biosystems). […] PCR products and a 100 bp DNA marker were then loaded in a 2% agarose gel stained with ethidium bromide. Gel electrophoresis was performed using a power-supply (E-C Apparatus Corp.) set at 110V with constant amperage for 1.5 hours. Gels were then photographed using a Gel Documentation System (UVP), and bands analyzed using Gel-Pro Analyzer (MediaCybernetics) on a P4 Windows machine.

[2] = test system: BACE-1; test: BACE-1 mRNA expression in HTB-11 cells (RT-PCR)
Procedure: as §1, §2

[3] = test system: Mytilus edulis pedal ganglia; test: Endogenous morphine levels in excised pedal ganglia incubated in vitro (HPLC, RIA); format: cell-based; conditions: for morphine per ganglion wet weight / ganglionic morphine levels versus control: in vitro; for morphine per ganglion wet weight: 5-hydroxytryptophan 1 μg/gm tissue, vehicle 2.1±0.44; for effect of enzyme inhibitor on precursor-induced morphine production: quinidine with tyramine, AMPT with tyrosine, concentration dependent; for morphine in ganglia: 10 μg of each compound, control 11.9; for ganglionic morphine levels versus control: 50 and 100 ng, 60 minutes; for ganglionic morphine levels after in vitro incubation: ganglionic wet weight, before: 1.08±0.27 (tyramine), 0.96±0.31 (tyrosine); for share of added precursor converted to morphine: in vitro ganglia incubation; for ganglionic morphine levels after exposure: 10^−6 M (FIG. 20)
[4] = test system: Mytilus edulis pedal ganglia; test: Ganglionic morphine levels after injection into the foot of intact animals; conditions: for pedal ganglionic morphine levels after injection: one hour after injection into the foot; for morphine levels after injection of inhibitor alone: 10^−4 M via the foot; for ganglionic morphine levels after injection: 10^−5 M in the foot, one hour, controls 1.02±0.24; for decrease in ganglionic morphine levels when the respective enzyme inhibitor was topically applied: AMPT or quinidine 10^−4 M on pedal ganglia after amino acid injection
Procedure: For in vivo precursor injection experiments, the animal's foot was injected with either reticuline or L-DOPA (0.1 and 1 μg/injection, respectively). Chemicals were injected by BD 1 cc syringes with 26 G needles. Each needle was inserted into that base of the foot just above the pedal ganglia.
(§3) For in vivo treatments, the animal's foot (20 animals per treatment) was injected with tyrosine (10^−5 M), tyramine (10^−5 M), or saline. Other animals were exposed to the enzyme inhibitors AMPT or quinidine alone or immediately following the respective foot injection. […] All chemicals were purchased from Sigma (St. Louis, Mo.).

[5] = test system: pedal ganglia; test: NO release from excised pedal ganglia (NO-selective microprobe); format: cell-based, Mytilus edulis; conditions: for NO Peak Level / NO Peak Time: ligand 10^−7 M
Procedure: For the nitric oxide assay, ten pedal ganglia (per determination) dissected from M. edulis were bathed in 1 mL sterile phosphate buffered saline (PBS). […] For the opiate receptor antagonist experiments, ganglia were pretreated with naloxone for 10 minutes prior to reticuline addition. NO release was monitored with an NO-selective microprobe manufactured by World Precision Instruments (Sarasota, Fla.). The sensor was positioned approximately 100 μm above the respective tissue surface. […] The NO detection system was calibrated daily. The probe was allowed to equilibrate for 10 minutes in the incubation medium free of tissue before being transferred to vials containing the ganglia for another 5 minutes. Manipulation and handling of the ganglia was only performed with glass instruments. Data was acquired using the Apollo-4000 free radical analyzer (World Precision Instruments, Sarasota, Fla.). The experimental values were then transferred to Sigma-Plot and -Stat (Jandel, Calif.) for graphic representation and evaluation.

[6] = biological target: T1, mu3 opiate receptor (Homo sapiens, UniProt P35372); test: biochemical; format: binding
T1 construct: An additional 100 excised pedal ganglia and the human monocytes were separately washed and homogenized; host or cells: human monocytes
Procedure: For the nitric oxide assay, ten pedal ganglia (per determination) dissected from M. edulis were bathed in 1 mL sterile phosphate buffered saline (PBS). […] NO release was monitored with an NO-selective microprobe manufactured by World Precision Instruments (Sarasota, Fla.). The sensor was positioned approximately 100 μm above the respective tissue surface. […] The NO detection system was calibrated daily. The probe was allowed to equilibrate for 10 minutes in the incubation medium free of tissue before being transferred to vials containing the ganglia for another 5 minutes. Manipulation and handling of the ganglia was only performed with glass instruments. Data was acquired using the Apollo-4000 free radical analyzer (World Precision Instruments, Sarasota, Fla.). The experimental values were then transferred to Sigma-Plot and -Stat (Jandel, Calif.) for graphic representation and evaluation.
An additional 100 excised pedal ganglia and the human monocytes were separately washed and homogenized in 50 volumes of 0.32 M sucrose, pH 7.4, at 4° C. using a Brinkmann polytron (30 seconds, setting no. 5). The crude homogenate was centrifuged at 900×g for 10 minutes at 4° C., and the supernatant was reserved on ice. The whitish crude pellet was resuspended by homogenization (15 seconds, setting no. 5) in 30 volumes of 0.32 M sucrose/Tris-HCl buffer, pH 7.4, and centrifuged at 900×g for 10 minutes. The extraction procedure was repeated one more time, and the combined supernatants were centrifuged at 900×g for 10 minutes. The resulting supernatants (S1′) were used immediately. […] The P2 pellet was then re-suspended with a Dounce hand-held homogenizer (10 strokes) in 100 volumes of buffer. […]
Aliquots of membrane suspension (0.2 mL, 0.12 mg of membrane protein) were incubated in triplicate at 22° C. for 40 minutes with the appropriate radiolabeled ligand in the presence of dextrorphan (10 mM) or levorphanol (10 mM) in 10 mM Tris-HCl buffer, pH 7.4, containing 0.1% BSA and 150 mM KCl. […] Protein concentration was determined in membrane suspensions (prepared in the absence of BSA).

[7] = test system: PMNs; test: PMN activation level by computer-assisted image analysis (form factor); conditions: for level of PMN activation: IL-1β 2 ng/mL one hour, L-DOPA 10^−6 M, untreated 7.3±2.1%
Procedure: The morphological measurements of PMNs were based on cell area and perimeter determinations by the use of image analysis software (Compix, Mars, Pa.). […] The observational area used for measurement determinations and frame-grabbing was 0.4 μm in diameter.
After this incubation, the PMNs were evaluated for their activity level via computer-assisted image analysis.

[8] = test system: human white blood cells / PMNs; test: Morphine production by human WBC and PMNs (HPLC, RIA); format: cell-based; conditions: for WBC morphine concentrations versus untreated cells: P<0.001; for Morphine levels in media after the cells were removed: PMNs 3×10^6 cells, THP 100 μg, reticuline 50 μg, L-DOPA 100 μg, L-tyrosine 100 μg; for morphine concentrations in WBC: one-hour treatment, control 12.33±5.64
[9] = test system: Mytilus edulis ganglia and hemolymph; test: Dopamine levels in ganglia and hemolymph (HPLC UV)
Procedure: Mytilus edulis collected from the local waters of Long Island Sound were maintained as described herein. […] The pedal ganglia were incubated with and without tyrosine or tyramine in the presence of quinidine, a CYP2D6 inhibitor, and alpha methyl para tyrosine (AMPT), which inhibits tyrosine hydroxylase.
as §3
After ganglionic dissection, ganglia were pooled into one eppendorf tube, 1 ml of 1 N HCl was added, and the tissue was sonicated by sonic dismemberator (Fisher scientific, USA). Homogenized tissue was then transferred to a 15 mL polypropylene centrifuge tube (Fisher Scientific, PA, USA). 5 mL of chloroform/isopropanol (9:1, v/v) was added, and the contents of the tube vigorously vortexed for 5 minutes at room temperature. […] Supernatant (water soluble layer) was dispatched into pre-siliconized 1.5 tubes (Midwest Scientific) and kept at 4° C. for immediate use for HPLC determination or stored at −80° C. for further analysis.

[10] = test system: SK-N-SH neuroblastoma cell line; test: NO release from SK-N-SH neuroblastoma cells
Procedure: The human SK-N-SH neuroblastoma cell line (ATCC #HTB-11) was used as a cellular model. Cells were propagated in Minimum Essential Medium alpha (MEMα) with 10% fetal bovine serum (FBS), 2% penicillin/streptomycin, 1.5 g/L NaHCO3, and 1.0 mM pyruvic acid. A 5% CO2 incubator (NAPCO) at 37° C. was used for maintenance of temperature and pH. […] When needed, cells were plated in 6- or 12-well plates using a hemocytometer (2×10^5 cells/well in 6-well plates or 1×10^5 cells/well in 12-well plates). Experimental manipulations were performed under sterile conditions under a lamina airflow hood after cells had adhered to the bottom of the plates.

[11] = test system: SK-N-SH neuroblastoma cell line; format: cell-based, human
Procedure: Cell viability was determined via Trypan blue exclusion. An inverted light microscope (Nikon) with a phase-contrast filter was used to observe the cells. Pictures of the cells were taken via a digital camera (Optronix) attached to the microscope ocular. Images were uploaded onto ImagePro Plus Software (Applied Biosystems), where cell viability was calculated based on both the number of cells covering the field and the cells that present as dead from the stain. In addition, ImagePro Plus was used for determining cellular morphology. The area and perimeter were found and used in the formula (4π*Area)/(Perimeter)^2, resulting in a value between 0 (a straight line) and 1 (a perfect circle).

[12] = test system: SK-N-SH neuroblastoma cell line; test: Cellular morphology (Form Factor) of neuroblastoma cells; format: cell-based, human; conditions: 10 μM
[13] = test system: Mytilus animals; test: TNF-α-induced death of animals; conditions: 10 U/mL TNF-α by injection, after 4 days
Procedure: 100 healthy Mytilus animals were treated with 10 U/mL of TNF-α by injection.

[14] = 1 μM morphine, 10 μM pre-treatment for twenty minutes

T1 sequence (P35372 1-314 isoform P35372-14): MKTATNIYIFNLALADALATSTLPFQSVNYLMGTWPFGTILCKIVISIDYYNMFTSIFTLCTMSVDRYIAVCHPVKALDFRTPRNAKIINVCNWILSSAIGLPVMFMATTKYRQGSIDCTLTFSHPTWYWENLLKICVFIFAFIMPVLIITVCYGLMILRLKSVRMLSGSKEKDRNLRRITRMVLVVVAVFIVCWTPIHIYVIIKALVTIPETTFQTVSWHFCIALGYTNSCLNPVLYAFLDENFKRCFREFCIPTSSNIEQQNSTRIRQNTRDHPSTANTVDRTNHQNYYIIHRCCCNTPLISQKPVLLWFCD

Molecule: CC(=O)NC(C(=O)O)C(C)(C)SN=O (racemic) [SNAP, S-Nitroso-N-acetyl-D, L-penicillamine]
- BACE-2 expression ([1]; SNAP 1, 5, 10 μM, 4- and 24-hour timepoints): up regulated in a concentration dependent manner BACE-2 expression
- BACE-1 expression ([2]; SNAP 1, 5, 10 μM, 4- and 24-hour exposures): reduced BACE-1 expression in a concentration dependent manner

Molecule: N[C@@H](Cc1c[nH]c2ccc(O)cc12)C(=O)O [5-hydroxytryptophan]
- morphine per ganglion wet weight [3]: 2.1±0.41 ng morphine per ganglion
- pedal ganglionic morphine levels after injection [4]: failed to increase ganglionic morphine levels

Molecule: CC(N)(Cc1ccc(O)cc1)C(=O)O (stereo not drawn) [AMPT, alpha-methyl-para-tyrosine]
- effect of enzyme inhibitor on precursor-induced morphine production [3]: less tyrosine-induced morphine production
- morphine levels after injection of inhibitor alone [4]: did not exhibit any change in morphine levels

Molecule: CN1CC[C@]23c4c5ccc(O)c4O[C@H]2[C@@H](O)CC[C@H]3[C@H]1C5 [Dihydromorphine, dihydromorphine]
- NO Peak Level [5]: 23.2 ± 3.7 nM
- NO Peak Time [5]: 0.9 ± 0.3 min
- IC50 [6]: 19.1 ± 3.3 nM

Molecule: N[C@@H](Cc1ccc(O)c(O)c1)C(=O)O [L-DOPA]
- level of PMN activation [7]: 3.7±0.4%
- percent of activated cells in mixed PMN population ([7]; L-DOPA treated and IL-1β treated PMNs mixed 1:1): 12.5±3.7%
- morphine in ganglia [3]: 9.31 ng/mL
- ganglionic morphine levels versus control [3]: significantly higher
- morphine per ganglion wet weight [3]: 3.6±0.45 ng morphine per ganglion
- WBC morphine concentrations versus untreated cells [8]: significantly increased WBC morphine concentrations
- Morphine levels in media after the cells were removed [8]: 1.234 ± 0.26
- morphine concentrations in WBC [8]: 136.5±12.43 pg/million cells
- pedal ganglionic morphine levels after injection [4]: significantly increased pedal ganglionic morphine levels

Molecule: N[C@@H](Cc1ccc(O)cc1)C(=O)O [L-tyrosine]
- ganglionic morphine levels after in vitro incubation [3]: 2.39 ± 0.64 ng/g
- share of added precursor converted to morphine [3]: About 7%
- Morphine levels in media after the cells were removed [8]: 2.223 ± 0.38
- ganglionic morphine levels after injection [4]: 2.46±0.22 ng/g wet weight
- decrease in ganglionic morphine levels when the respective enzyme inhibitor was topically applied [4]: 30%

Molecule: COC1=C[C@]23CCN(C)[C@H](Cc4ccc(OC)c(O)c42)C3=CC1=O [Salutaridine, salutaridine]
- NO Peak Level [5]: 18.5 ± 3.3 nM
- NO Peak Time [5]: 8.9 ± 1.3 min
- IC50 [6]: > 1000 nM

Molecule: Oc1ccc(CC2NCCc3cc(O)c(O)cc32)cc1O (stereo not drawn) [THP, norlaudanosoline]
- ganglionic morphine levels after exposure [3]: significantly enhanced morphine levels
- ganglionic morphine levels versus control [3]: significantly higher
- share of added precursor converted to morphine [3]: About 20%
- WBC morphine concentrations versus untreated cells [8]: significantly increased WBC morphine concentrations
- Morphine levels in media after the cells were removed [8]: 2.028 ± 0.42
- morphine concentrations in WBC [8]: 90.25±10.42 pg/million cells

Molecule: NCCc1ccc(O)cc1 [Tyramine, tyramine]
- ganglionic DA level after tyramine injection ([9]; from 4.98±0.27): 9.17±1.21 μg/g wet weight
- hemolymph DA level after tyramine ([9]; from 10.13±1.24): 16.47 ± 1.28 µg/mL
- hemolymph DA (FIG. 19 legend) ([9]; tyramine 100 μg/mL incubation, PBS 10.13±0.34): 16.47±2.28 μg of DA/mL
- ganglia DA (FIG. 19 legend) ([9]; tyramine injection 100 μg/animal, PBS 4.78±0.27): 9.17±1.21 μg of DA/g
- ganglionic morphine levels after in vitro incubation [3]: 2.51 ± 0.36 ng/g
- share of added precursor converted to morphine [3]: About 7%
- WBC morphine concentrations versus untreated cells [8]: significantly increased WBC morphine concentrations
- ganglionic morphine levels after injection [4]: 3.28±0.45 ng/g wet weight
- decrease in ganglionic morphine levels when the respective enzyme inhibitor was topically applied [4]: 25%

Molecule: CCc1cccc2cc(C(O)CNC(C)(C)C)oc12 (stereo not drawn) [bufuralol]
- effect on precursor-induced morphine synthesis in PMNs [8]: significantly diminished synthesis of morphine

Molecule: COc1ccc2c3c1O[C@H]1[C@@H](O)C=C[C@H]4[C@@H](C2)N(C)CC[C@@]341 [codeine]
- ganglionic morphine levels after exposure [3]: significantly enhanced morphine levels

Molecule: NCCc1ccc(O)c(O)c1 [dopamine]
- morphine in ganglia [3]: 8.82 ng/mL
- ganglionic morphine levels after exposure [3]: significantly enhanced morphine levels

Molecule: CN1CC[C@]23c4c5ccc(O)c4O[C@H]2[C@@H](O)C=C[C@H]3[C@H]1C5.O=S(=O)(O)O [morphine sulfate]
- peak NO release ([10]; morphine sulfate 5 μM, baseline 2 nM NO): 22.3 nM
- confluency [11]: about 78%

Molecule: C=CCN1CC[C@]23c4c5ccc(O)c4O[C@H]2C(=O)CC[C@@]3(O)[C@H]1C5 [naloxone]
- effect of naloxone pre-treatment on reticuline-stimulated NO release ([5]; naloxone 10^−6 M, reticuline 10^−7 M): blocking the reticuline (10^−7 M) stimulated release of NO
- level of activation in mixed PMN population, IL-1β-treated cells co-treated with naloxone ([7]; mixed with L-DOPA-treated PMNs): 35.2±6.3%
- effect of pre-treatment on morphine's effect on BACE-2 expression [1, 14]: blocked by naloxone
- NO release induced by 10^−6 M morphine in presence of blocker ([10]; naloxone 10^−6 M, L-NAME 10^−4 M): 3.2 nM NO
- effect on morphine neuroprotection, Form Factor [12]: reversal in morphine neuroprotection
- effect of pre-treatment on morphine's effect on BACE-1 expression [2, 14]: blocked by naloxone

Molecule: C=C[C@H]1C[N@@]2CC[C@H]1C[C@@H]2[C@@H](O)c1ccnc2ccc(OC)cc12 [quinidine]
- ganglia DA, tyramine and quinidine injections (FIG. 19 legend) ([9]; 100 μg/animal): 2.57±0.32 μg of DA/g
- effect of quinidine on tyramine-induced DA level increases ([9]; ganglionic and hemolymph): blocked by quinidine exposure
- hemolymph DA, tyramine and quinidine exposure (FIG. 19 legend) ([9]; tyramine 100 μg/mL, quinidine 10 μg/mL): 10.24 μg of DA/mL
- effect of quinidine on morphine increase by THP, reticuline, DA, or codeine ([3]; quinidine 10^−6 M): significantly blocked by quinidine exposure
- effect of enzyme inhibitor on precursor-induced morphine production [3]: less tyramine-induced morphine production
- effect on precursor-induced morphine synthesis in PMNs [8]: blocked morphine synthesis
- morphine levels after injection of inhibitor alone [4]: did not exhibit any change in morphine levels

Molecule: IL-1β: cytokine used to activate PMNs
- level of PMN activation [7]: 43.4±5.7%

Molecule: TNF-α
- animals that died [13]: about 20%

B1: IFNγ: interferon used to simulate an immune response (protein, UniProt P01579 24-161, looked up)
Interferon gamma: QDPYVKEAENLKKYFNAGHSDVADNGTLFLGILKNWKEESDRKIMQSQIVSFYFKLFKNFKDDQSIQKSVETIKEDMNVKFFNSNKKKRDDFEKLTNYSVTDLNVQRKAIHELIQVMAELSPAAKTGKRKRSQMLFRG
- cellular death ([11]; IFNγ): did not cause significant cellular death
